Data published in paper PMC5556071, “ATR inhibition facilitates targeting of leukemia dependence on convergent nucleotide biosynthetic pathways” (Nature Communications, 2017).
“And” between values parts separate entries of the source, which are not always exact repeats. Identical values can stand only once.

System: CEM cells
Test: Non-targeted LC-MS metabolite profiling: percent [13C6]glucose labeling and relative metabolite levels
Type: cell-based, human
Settings: CEM cells, 12 h following release from G1 arrest, replicates #1-#6
Text: To further investigate the functions of dCK and ATR at the G1/S transition in CEM cells, a non-targeted liquid chromatography mass spectrometry (LC-MS) assay was used to determine the utilization of labeled [^13C6]glucose and [^13C9,^15N3]deoxycytidine, the main substrates for de novo and salvage nucleotide biosynthesis, respectively. Of the 166 metabolites identified in CEM cells treated with VE-822 and/or dCKi, 105 metabolites found in all four treatment groups contained glucose-derived ^13C atoms. […] These metabolites included intermediates such as rUTP, rCTP and rCDP in the de novo dCTP biosynthesis (Fig. 1d). […] However, several deoxyribonucleotides, including dCTP, were below the limit of detection of the non-targeted LC-MS approach, raising the concern that the sensitivity of this assay is not sufficient to measure the contribution of the salvage pathway or the ratio of de novo and salvage biosynthesis to these pools. To address this problem, a newly developed targeted MS assay was developed (Fig. 1e and Supplementary Fig. 3). In this assay, samples containing either extracted dNTPs or hydrolyzed DNA from labeled cells are separated by LC for detection by a triple quadrupole mass spectrometer using multiple reaction monitoring (LC-MS/MS-MRM). The first (Q1) and third (Q3) quadrupoles function as mass filters, while the second (Q2) quadrupole serves as a collision chamber (Fig. 1e). For instance, to profile the biosynthetic composition of deoxycytidine (dC) derived from hydrolyzed DNA or dCTP, an intact, protonated dC ion is selected in Q1, followed by fragmentation of the glycosidic bond, which releases protonated cytosine in Q2, that is filtered in Q3 and detected to generate an ion chromatogram. The peak areas for the ion chromatograms of salvage [^13C9,^15N3]dC (red trace), de novo [^13C5]dC (black trace, from [^13C6]glucose) and unlabeled dC (gray trace) (Fig. 1e) are used to determine the relative contributions of the de novo and salvage routes both to dCTP pools and to DNA-incorporated dCTP.
Cells were transferred into RPMI-1640 without glucose and supplemented with 10% dialyzed FBS (Gibco) containing the following labeled substrates: precursors for de novo [U-^13C6]glucose (Sigma-Aldrich, 389374) at 11 mM; precursors for purine salvage [U-^13C10,^15N5]dA (Cambridge Isotopes, CIL 3896), [^15N5]dA (Cambridge Isotopes, NLM-3895) and [^15N5]dG (Cambridge Isotopes, NLM-3899) at 5 µM or as indicated; and precursors for pyrimidine salvage: [U-^13C9,^15N3]dC (Silantes, 124603602) and [U-^13C10,^15N2]dT (Cambridge Isotopes, CNLM-3902) at 5 µM and [^15N2]orotate (Cambridge Isotopes, NLM-1048) at indicated concentrations. The cells were incubated for 12 h or as indicated before sample collection and processing. […]
Non-targeted LC-MS metabolic assays. 1 x 10^6 cells were washed with ice-cold 150 mM ammonium acetate twice before adding 1 mL of ice-cold 80% methanol with 10 nM norvaline as an internal standard. After vigorous vortexing, samples were centrifuged at maximum speed, the aqueous layer was transferred to a glass vial and the metabolites were dried under vacuum. Metabolites were resuspended in 50 μL 70% acetonitrile (ACN) and 5 μL of this solution used for the mass spectrometer-based analysis. The analysis was performed on a Q Exactive (Thermo Scientific) in polarity-switching mode with positive voltage 4.0 kV and negative voltage 4.0 kV. The mass spectrometer was coupled to an UltiMate 3000RSLC (Thermo Scientific) UHPLC system. Mobile phase A was 5 mM ammonium acetate (NH4AcO), pH 9.9, B was acetonitrile and the separation achieved on a Luna […] NH2 100 A column (150 × 2.0 mm, Phenomenex). The flow was 200 μL/min, and the gradient ran from 15% A to 95% A in 18 min, followed by an isocratic step for 9 min and re-equilibration for 7 min. Metabolites were detected and quantified as area under the curve based on retention time and accurate mass (≤ 3 p.p.m.) using the TraceFinder 3.1 (Thermo Scientific). Relative amounts of […]

[1] = metabolite Asp (C00049), listed as V
[2] = metabolite Carnitine (C00318), listed as V
[3] = metabolite G3P (KEGG C00118), listed as V
[4] = metabolite G6P-F6P (KEGG C00668), listed as V
[5] = metabolite GABA (KEGG C00334), listed as V
[6] = metabolite GDP (KEGG C00035), listed as V
[7] = metabolite GMP (KEGG C00144), listed as V
[8] = metabolite GSH (KEGG C00051), listed as V
[9] = metabolite GSSG (KEGG C00127), listed as V
[10] = metabolite GTP (KEGG C00044), listed as V
[11] = metabolite Glc (KEGG C00031), listed as V
[12] = metabolite GlcA (KEGG C00257), listed as V
[13] = metabolite GlcN-6P (KEGG C00352), listed as V
[14] = metabolite GlcNAc-6P (KEGG C00357), listed as V

With `CNCc1ccc(-c2cc(-c3nc(-c4ccc(S(=O)(=O)C(C)C)cc4)cnc3N)on2)cc1` [VE-822] the “Relative level, Asn” value (metabolite Asn (C00152), listed as V) was 1.3 and 1.4 (2×) and 0.9 (3×), the “Glucose labeling, Asp” value [1] was 22.64% and 22.44% and 22.12% and 21.45% and 21.35% and 21.96% and the “Relative level, Asp” value [1] was 1.8 and 1.3 and 1.4 and 1.5 and 0.9 and 1.0. The “Glucose labeling, C” value (metabolite C (D07769), listed as V) was 0.35% and 0.24% and 0.32% and 0.34% and 0.00758% and 0.36%, the “Relative level, C” value (metabolite C, listed as V) was 1.9 (2×) and 2.0 and 1.8 and 2.3 and 2.5 and the “Glucose labeling, Carnitine” value [2] was 0.0372% and 0.00375% and 0.00443% and 0.00282% and 0.06% and 0.00331%. For the same compound, the “Relative level, Carnitine” value [2] was 0.9 and 1.0 (2×) and 0.7 (2×) and 0.8, the “Glucose labeling of G3P” value [3] was 58.87% and 0.0369% (3×) and 100.00% (2×) and the “Relative level of G3P” value [3] was 0.952 and 0.6 (2×) and 0.2 and 0.456. For the same compound, the “Glucose labeling of G6P-F6P” value [4] was 88.15% and 86.27% and 90.17% and 83.23% and 85.62% and 81.44%, the “Relative level of G6P-F6P” value [4] was 4.7 and 2.5 and 3.5 and 1.9 and 1.1 and 1.0 and the “Glucose labeling of GABA” value [5] was 0.05% and 0.04% and 0.0737% (4×). The “Relative level of GABA” value [5] was 0.9 (2×) and 1.0 and 0.4 (2×) and 0.5, the “Glucose labeling of GDP” value [6] was 66.45% and 57.13% and 62.54% and 65.67% and 61.42% and 68.88% and the “Relative level of GDP” value [6] was 2.9 and 0.7 and 1.2 and 1.1 and 0.647 and 0.351. The “Glucose labeling of GMP” value [7] was 67.56% and 73.95% and 70.72% and 64.86% and 56.63% and 63.18%, the “Relative level of GMP” value [7] was 3.6 and 1.9 (2×) and 2.2 and 0.527 and 0.431 and the “Glucose labeling of GSH” value [8] was 22.37% and 21.90% and 25.59% and 18.14% and 18.31% and 18.93%. The “Relative level of GSH” value [8] was 1.4 and 1.1 and 0.9 and 0.6 and 0.557 and 0.5, the “Glucose labeling of GSSG” value [9] was 41.97% and 38.91% and 39.41% and 36.66% and 34.27% and 31.20% and the “Relative level of GSSG” value [9] was 1.0 (2×) and 0.9 and 0.7 and 0.553 and 0.533. For the same compound, the “Glucose labeling of GTP” value [10] was 66.00% and 75.98% and 68.76% and 65.13% and 72.51% and 69.15%, the “Relative level of GTP” value [10] was 1.6 and 0.4 (2×) and 0.8 and 0.9 and 0.378 and the “Glucose labeling of Glc” value [11] was 85.14% and 89.26% and 81.87% and 76.15% and 74.50% and 90.17%. For the same compound, the “Relative level of Glc” value [11] was 1.6 and 2.4 and 1.4 and 0.9 (2×) and 3.6, the “Glucose labeling of GlcA” value [12] was 10.98% and 10.19% and 12.71% and 10.94% and 11.47% and 12.23% and the “Relative level of GlcA” value [12] was 0.9 and 0.6 and 0.566 and 0.5 and 0.3 (2×). For the same compound, the “Glucose labeling of GlcN” value (metabolite GlcN (KEGG C00329)) was 0.18%, the “Relative level of GlcN” value (metabolite GlcN (KEGG C00329), listed as V) was 0.9 and 1.4 and 1.6 and 1.1 and 0.8 and 1.7 and the “Glucose labeling of GlcN-6P” value [13] was 6.56% and 5.43% and 4.48% and 7.20% and 4.32% and 4.29%. The “Relative level of GlcN-6P” value [13] was 0.65 and 0.8 and 0.6 and 0.7 (2×) and 0.653, the “Glucose labeling of GlcNAc-6P” value [14] was 39.94% and 9.75% and 47.59% and 56.84% and 49.88% and 50.30% and the “Relative level of GlcNAc-6P” value [14] was 0.8 and 0.37 and 0.9 and 1.0 and 0.533 and 0.4.
